Experimental data reported in patent US20240261296A1, “THERAPEUTIC MODALITIES FOR INHIBITING PANCREATIC BETA CELL IMPAIRMENT AND TREATING DIABETES” (Hadasit Medical Research Serices & Development Ltd., priority 2021, published 2024).

How the values were obtained:
Format in all cases: in vivo
[1] = kidney function parameters in sera of C57Bl/6 mice
Description: Blood was collected by cardiac puncture, and 50 μl were collected in EDTA containing tubes for cell blood count (CBC). Further, 200-300 μl of blood was centrifuged and serum was collected for biochemical analysis.
D. Effects of orally administered compounds on kidney function parameters: Creatinine and Urea levels were measured in the sera obtained from mice 24 h after the third gavage with saline/DMSO (Control Saline); 3 mg/kg/day Compound C5; Compound C13 or the EP3 antagonist L-798106. […] 12 B for Urea.
D. Kidney function parameters: Creatinine (FIG. 15A) and Urea (FIG. 15B) were measured in sera obtained from mice, 24 h after injection of either Saline/DMSO (Control Saline), Compound C5 or L-798106.

[2] = liver function parameters in sera of C57Bl/6 mice
Description: Blood was collected by cardiac puncture, and 50 μl were collected in EDTA containing tubes for cell blood count (CBC). Further, 200-300 μl of blood was centrifuged and serum was collected for biochemical analysis. C. Effects of orally administered compounds on liver function parameters: The blood levels of albumin, the liver aspartate transaminase (AST) and alanine transaminase (ALT) were measured in the sera obtained from mice 24 h after the third gavage with saline/DMSO (Control Saline); 3 mg/kg/day Compound C5; Compound C13 or the EP3 antagonist L-798106. Results are presented in FIG. 11A for Albumin, FIG. 11B for AST, and FIG. 11C for ALT. […] All p-values >0.05. C. Liver function parameters: Blood levels of albumin (FIG. 14A), liver transaminases: aspartate transaminase (AST, FIG. 14B) and alanine transaminase (ALT, FIG. 14C), as well as bilirubin, were measured in sera obtained from mice 24 h after injection of either Saline/DMSO (Control Saline); C5; C13 or L-798106. […] Typically, this biomarker levels rise with liver injury and help monitor function under drugs treatment. Here a decrease in the levels of ALT in the serum of L-798106- and C13-treated mice, is not considered to indicate liver damage. Bilirubin<1 μM was measured in all test groups.

db/db mice [3] = test: fasting blood glucose (FBG) in db/db and control mice
From the text: Fasting blood glucose (FBG) concentrations in each of the treated groups were also compared following 4- and 8-weeks treatment as described in Example 9. Results for the 4-weeks treatment of the control mice and the db/db mice are presented in FIGS. 20A-20B respectively and for the 8-weeks treatment of the control mice and the db/db mice are presented in FIGS. 20C-20D, respectively; each treatment is graphically represented as described in Example 9.
FBG concentrations. FBG concentrations in each of the treated groups, vehicle, L-798106, C17 and C20, was compared following 4- and 8-weeks treatment essentially as described in Example 11. Results for the 4-weeks treatment of the control mice and the db/db mice are presented in FIGS. 29A-29B respectively and for the 8-weeks treatment of the control mice and the db/db mice are presented in FIGS. 29C-29D, in which, each treatment is graphically represented as described in Example 14, The numbers of tested mice are as follows: control mice (n=10-15), db/db mice (n=10).

[4] = blood insulin concentrations by serum C-peptide ELISA; conditions: 8 weeks oral treatment; vs vehicle-treated diabetic mice
Description: (§1) At the end of the 8 week-long period of treatment as described in Example 9, mice were sacrificed and blood samples were collected, and analyzed for different parameters as detailed below.
Blood insulin concentrations.
Blood insulin concentrations. Following 8 weeks of treatment, blood samples were collected and the levels of insulin in the collected sera were assessed essentially as described in Example 12. The results are presented in FIG. 28, in which the different test groups as presented in FIG. 28 are represented as described in Example 14 and “ns” indicates non-significant differences. The numbers of tested mice are as follows: vehicle (n=10), L-798106 (n=10), C17 (n=5), C20 (n=5).

db/db mice [5] = test: Insulin Tolerance Test (ITT); conditions: 8 weeks oral treatment; for glucose levels after insulin injection (insulin sensitivity), db/db mice: 0.75 U/kg insulin, all time points, vs vehicle
Description: An Insulin Tolerance Test (ITT) was conducted to determine the effect of the test compounds on insulin resistance, following oral administration of Vehicle or the tested compounds as described in Example 9. To this end, the different treated groups were further subjected to a subsequent 5-hour fast and then injected with 0.75 U/kg insulin. Blood glucose was measured at the time of insulin injection (baseline level) and at the indicated time intervals thereafter. Blood glucose levels and AUC of the wild-type mice are presented in FIGS. 19A-19B respectively, and blood glucose levels and AUC of the db/db mice are presented in FIGS. 19C-19D respectively. The different test groups as presented in FIGS. 19A-19D are represented as described in Example 9.
To determine the effect of the C17 and C20 compounds on insulin resistance, an ITT was conducted essentially as described in Example 11. Blood glucose levels and AUC of the wild-type mice are presented in FIGS. 27A-27B respectively (n=5-15), and blood glucose levels and AUC of the db/db mice are presented in FIGS. 27C-27D respectively (n=5-10). The different test groups as presented in FIGS. 27A-27D are represented as described in Example 14.

[6] = lipid parameters in sera of db/db mice; conditions: 8 weeks of treatment; for blood triglyceride levels: vs vehicle
Description: as §1
Lipid parameters in sera. Mice lipid profiles were assessed by measuring triglycerides and total cholesterol levels in the sera of the treated mice. The results for the triglycerides and cholesterol levels in db/db mice are presented in FIGS. 24A-24B respectively, in which, each treatment is graphically represented as described in Example 9, for each group n=5, data is presented ±SEM. Statistical analysis between each treated-group compared to vehicle was performed p-value for C5=0.06, for C13=0.02 and p >0.05 for the rest of the tests.

[7] = oral 3 mg/kg/day, 24 h after third gavage
[8] = 4 weeks of treatment, vs vehicle

CC[C@H](C)c1ccc(S(=O)(=O)Nc2ccccc2C(=O)N2C[C@@H](C)O[C@@H](C)C2)cc1 [Compound C5, 4-((S)-sec-butyl)-N-(2-((2S,6R)-2,6-dimethylmorpholine-4-carbonyl)phenyl)benzenesulfonamide]
Creatinine ([1]; IP, 24 h after injection): no statistically significant differences
Urea ([1]; IP, 24 h after injection): no statistically significant differences
Creatinine [1, 7]: No statistically significant differences
Urea [1, 7]: No statistically significant differences
alanine transaminase (ALT) ([2]; IP, 24 h after injection): no statistically significant differences
albumin ([2]; IP, 24 h after injection): no statistically significant differences
aspartate transaminase (AST) ([2]; IP, 24 h after injection): no statistically significant differences
alanine transaminase (ALT) [2, 7]: no statistically significant differences
albumin [2, 7]: no statistically significant differences
aspartate transaminase (AST) [2, 7]: no statistically significant differences
FBG in db/db mice (db/db mice [3]; [8]): significant decrease in FBG
FBG in control mice (db/db mice [3]; 8 weeks of treatment): decrease in FBG in the control mice, although to a much lesser extent
blood insulin levels (serum C-peptide) in diabetic mice [4]: the differences did not reach statistical significance
glucose levels after insulin injection (insulin sensitivity), db/db mice (db/db mice [5]): Improve Insulin Sensitivity
total cholesterol levels [6]: No effect on total cholesterol levels
blood triglyceride levels [6]: significant reduction

CC[C@@H]1CC[C@H](C)N1C(=O)c1cccc(NS(=O)(=O)c2ccc(C)c(F)c2)c1 [Compound C13, N-(3-((2R,5S)-2-ethyl-5-methylpyrrolidine-1-carbonyl)phenyl)-3-fluoro-4-methylbenzenesulfonamide]
Creatinine ([1]; IP, 24 h after injection): p-value >0.05
Urea ([1]; IP, 24 h after injection): p-value >0.05
Creatinine [1, 7]: No statistically significant differences
Urea [1, 7]: No statistically significant differences
alanine transaminase (ALT) ([2]; IP, 24 h after injection): lower concentrations of alanine transaminase
albumin ([2]; IP, 24 h after injection): no statistically significant differences
aspartate transaminase (AST) ([2]; IP, 24 h after injection): no statistically significant differences
alanine transaminase (ALT) [2, 7]: no statistically significant differences
albumin [2, 7]: no statistically significant differences
aspartate transaminase (AST) [2, 7]: no statistically significant differences
FBG in db/db mice (db/db mice [3]; [8]): significant decrease in FBG
FBG in control mice (db/db mice [3]; 8 weeks of treatment): decrease in FBG in the control mice, although to a much lesser extent
FBG in db/db mice (db/db mice [3]; 8 weeks of treatment): significantly more pronounced
blood insulin levels (serum C-peptide) in diabetic mice [4]: the differences did not reach statistical significance
glucose levels after insulin injection (insulin sensitivity), db/db mice (db/db mice [5]): Improve Insulin Sensitivity
total cholesterol levels [6]: No effect on total cholesterol levels
blood triglyceride levels [6]: significant reduction

COc1ccc(Br)cc1S(=O)(=O)NC(=O)/C=C/c1ccccc1Cc1ccc2ccccc2c1 [Compound L-798106, (2E)-N-[(5-bromo-2-methoxyphenyl)sulfonyl]-3-[2-(2-naphthalenylmethyl)phenyl]-2-propenamide, reference compound]
Creatinine ([1]; IP, 24 h after injection): no statistically significant differences
Urea ([1]; IP, 24 h after injection): no statistically significant differences
Creatinine [1, 7]: No statistically significant differences
Urea [1, 7]: No statistically significant differences
alanine transaminase (ALT) ([2]; IP, 24 h after injection): lower concentrations of alanine transaminase
albumin ([2]; IP, 24 h after injection): no statistically significant differences
aspartate transaminase (AST) ([2]; IP, 24 h after injection): no statistically significant differences
alanine transaminase (ALT) [2, 7]: no statistically significant differences
albumin [2, 7]: no statistically significant differences
aspartate transaminase (AST) [2, 7]: no statistically significant differences
FBG in db/db mice (db/db mice [3]; [8]): significant decrease in FBG
FBG in control mice (db/db mice [3]; 8 weeks of treatment): decrease in FBG in the control mice, although to a much lesser extent
FBG in db/db mice (db/db mice [3]; 8 weeks of treatment): significantly more pronounced
blood insulin levels (serum C-peptide) in diabetic mice [4]: the differences did not reach statistical significance
glucose levels after insulin injection (insulin sensitivity), db/db mice (db/db mice [5]): significant decrease in glucose levels
baseline glucose levels in ITT (db/db mice [5]; 5-hour fast): reduced baseline glucose levels
total cholesterol levels [6]: No effect on total cholesterol levels
blood triglyceride levels [6]: did not exhibit a statistically-significant reduction
